In PMC8026479 (Cancer Chemotherapy and Pharmacology, 2021):

Experiments:
[1] = Population PK model with allometric scaling of preclinical and human PK data; set-up: species or system mouse, rat, dog; conditions: estimated
From the text: (§1) Owing to the invasive nature of the PD marker collection (i.e. bone marrow aspiration), a semi-mechanistic PK/PD model based on animal PK/PD data and human PK data was developed to guide the selection of an optimal dose level for bone marrow aspiration in humans during dose escalation in the Phase I first-in-human study. The model was constructed using PK data from four species (mouse, rat, dog, and human) and PD data from three species (mouse, rat, and dog; Online Resources 1 and 2).
The model was constructed in two stages. First, preclinical PK data (e.g. doses, routes, and schedule of administration, observed concentrations) were compiled and modeled by allometric scaling. A sequential PK/PD modeling approach (population PK parameters and data approach) was then employed in which a semi-mechanistic PD model with various physiological compartments was created, and specific assumptions entered (Online Resource 3). Traditional forward addition/backward elimination was used for PK modeling. […] Many parameters in this complex model could not be estimated and were fixed either to the literature values or values selected on the basis of discussions with domain experts and sensitivity analysis. In preclinical animal models, the PD analysis modeled bone marrow cells positive for 5′-ethynyl-2′-deoxyuridine (EdU) and peripheral neutrophil counts simultaneously. Although the preclinical animal models could determine the G1 phase, they could not differentiate S, G2, and M phases; cells in these phases will be referred to as “cycling” throughout this manuscript.
Online Resource 1 List of studies used in PK and PD models
Data set Species Administration route Endpoint
BM bone marrow, EdU 5’-ethynyl-2’-deoxyuridine, IP intraperitoneal, IV intravenous, PD pharmacodynamics , PK
pharmacokinetics , PMN polymorphonuclear cell
Online Resource 2 Brief description of animal studies used in PK and PD models
Preclinical pharmacokinetic (PK)/toxicokinetic studies were conducted in mice, rats, and dogs. Data from eight
studies in four species, with a total of 1628 observations from 191 individuals, were used for PK/pharmacodynamic
(PD) modeling. Administration routes included oral, intravenous (IV), and intraperitoneal (IP). The designs of these
studies are described briefly below:
samples were collected from pre dose up to 48 h post dose. In rat toxicology studies, rats received 7-day
PK samples were collected
from pre dose up to 24 h post dose on Day 1 and Day 7.
samples were collected from pre dose up to 30 h post dose.
IV infusion. […]
Online Resource 3 PK/PD model parameters and assumptions
PK model parameters for trilacicliba
Ka (/h) 20.0 (FIXED) Assumptionb
Bioavailability (oral, mouse) 0.62 Estimated
Intercompartment rate constant 15.94 Estimated
Intercompartment clearance K42 0.29 Estimated
Allometric exponent for V 1.00 Estimated
Allometric exponent for CL 1.00 (FIXED) Assumptionc
Additive error 2.00 (FIXED) Assumptiond
Proportional error 0.32 Estimated
PD model parameters for trilaciclib and
Rate constant for BM precursor G 0.04 (FIXED) Assumption e
Rate constant for neutrophils 3.24*E-2 (FIXED) Assumption f
Max effect of G1T28 in the E max 1.00 (FIXED) Assumption g
Concentration of G1T28 with 5.90 Estimated
Feedback slope (/h) 1.00*E-6 (FIXED) Assumptionh
Scale for neutrophils in mice 150 Estimated
Scale for neutrophils in dogs 848 Estimated
EC50 as fraction of baseline value 2.00 Estimated
of persistence effect . Effect is on
transition of S phase cells to G1
Rate constant for stem cell G to 0.51 Estimated
Residual error variance 0.73 Estimated
aPK model parameters for 5 -FU were obtained from the literature
K a could not be estimated and
cThe allometric exponent for CL was estimated to be 0.945 from an earlier model during the model development
process and was fixed to 1 .00 for the purpose of model simplification to avoid overparameterization
dThe additive error was fixed to 20% of the assay LLOQ (10 ng/mL) to decrease the number of parameters to fit […]

[2] = system: transition rate constant from G1 to cycling for HSPCs; assay: Semi-mechanistic multi-compartment PK/PD model of hematopoiesis; set-up: species or system mouse, rat, and dog
From the text: as §1
The PK/multi-compartment PD model was based on a myelosuppression model previously published by Friberg et al., with modifications. […] In the model used in the current study, stem cells and progenitor cells were separated into two compartments, with experimental data measured for each compartment. […] Another important deviation from the Friberg model was the mechanism postulated for the homeostasis of the […] (PMNs). We postulated that the feedback mechanism has a set point target and that deviations from that target would accelerate (in the case of too few PMNs) or decelerate (in the case of too many PMNs) the transition of G1-phase cells to S-phase cells in the stem cell population.
The model was constructed in two stages. First, preclinical PK data (e.g. doses, routes, and schedule of administration, observed concentrations) were compiled and modeled by allometric scaling. A sequential PK/PD modeling approach (population PK parameters and data approach) was then employed in which a semi-mechanistic PD model with various physiological compartments was created, and specific assumptions entered (Online Resource 3). Traditional forward addition/backward elimination was used for PK modeling. […] Many parameters in this complex model could not be estimated and were fixed either to the literature values or values selected on the basis of discussions with domain experts and sensitivity analysis. In preclinical animal models, the PD analysis modeled bone marrow cells positive for 5′-ethynyl-2′-deoxyuridine (EdU) and peripheral neutrophil counts simultaneously. […]

SMILES: CN1CCN(c2ccc(Nc3ncc4cc5n(c4n3)C3(CCCCC3)CNC5=O)nc2)CC1 [trilaciclib]
- bioavailability ([1]; 150 mg/kg, oral, mouse): 62%
- Intercompartment clearance K24 [1]: 2.03 h⁻¹
- Intercompartment clearance K32 [1]: 4.42 h⁻¹
- Intercompartment clearance K42 [1]: 0.29 h⁻¹
- Intercompartment rate constant K23 [1]: 15.94 h⁻¹
- clearance ([1]; mouse, rat, dog, human, three-compartment model, allometric scaling, read-out: CL, PK model (converted)): 46.2 mL/min/kg
- Vd ([1]; mouse, rat, dog, human, three-compartment model, allometric scaling, read-out: V (central volume of distribution), PK model): 1.32 L/kg
- EC50, final PD model (concentration of G1T28 with 50% max effect) ([2]; plasma concentration, Emax effect on G1-to-cycling transition of HSPCs, model estimate): 5.9 ng/mL
- EC90 (therapeutically active) ([2]; predicted from model EC50): approximately 50 ng/mL
